According to publication PMC9822133, “Design, Synthesis and Antiproliferative Evaluation of Bis-Indole Derivatives with a Phenyl Linker: Focus on Autophagy” (Molecules, 2022):

Tests used:
HeLa = assay: MTT screening assay, HeLa; format: cell-based; settings: Homo sapiens, 72 h incubation
Text: The ability of newly synthesized indole phytoalexins to suppress cell proliferation was screened in vitro on eight cancer cell lines including human colorectal carcinoma (Caco-2 and HCT116), human cervical cancer (HeLa), human breast adenocarcinoma (MCF-7, MDA-MB-231), human alveolar adenocarcinoma (A549) and human leukemic T cell lymphoma (Jurkat), and two non-cancer cell lines (MCF-10A, Cos-7).
The cell lines used for this study were Caco-2 (human colorectal adenocarcinoma cell line, American Type Culture Collection, Manassas, VA, USA (ATCC)), HCT116 (human colorectal carcinoma cells European Collection of Authenticated Cell Cultures, Salisbury, UK (ECACC)), HeLa (human cervical tumor cells, ECACC), MCF-7 (human breast tumor cells, ECACC), MDA-MB-231 (human breast tumor cells, ATCC), A549 (human lung carcinoma cells, ATCC), BLM (human melanoma lung metastases, a gift from prof. K. Smetana, Institute of Anatomy, Charles University in Prague), Jurkat (human leukemia cell line, ECACC), Cos-7 (immortalized monkey kidney fibroblasts, ATCC) and MCF-10A (human mammary epithelial cells, ATCC). Caco-2, MCF-7, BLM, Cos-7 and A549 cells were cultured in Dulbecco’s Modified Eagle’s Medium (DMEM) with high glucose and sodium pyruvate (GE Healthcare, Piscataway, NJ, USA); HCT116 lines, HeLa, MDA-MB-231 and Jurkat were cultured in RPMI-1640 medium; and MCF10A cells were cultured in high glucose DMEM/F12 (Dulbecco’s Modified Eagle’s Medium F12). The media were enriched with 10% fetal bovine serum (FBS) and a 1% solution of a mixture of antibiotics and antimycotics 1× HyClone™ (GE Healthcare, Chicago, IL, USA). DMEM/F12 medium was supplemented with epidermal growth factor (EGF) (20 ng/mL final), hydrocortisone (0.5 μg/mL final) and insulin (10 μg/mL final) (Sigma-Aldrich Chemie, Steinheim, Germany). The cells were placed in an incubator at 37 °C with humidified air containing 5% CO2.
The MTT assay is a colorimetric method used to quantify the metabolic activity of cells. MTT (3-(4,5-di-methylthiazol-2-yl)2,5-diphenyltetrazolium bromide) (Sigma-Aldrich Chemie, Steinheim, Germany) is reduced by oxidoreductases in the cytosol of cells to light-absorbing formazan, the presence of which can be measured spectrophotometrically and determines the half-maximal inhibitory concentration (IC50). A549 cells were seeded in […] culture plates at a density of 5 × 10^3 per well. […]
We also incubated the cells with chloroquine at concentrations of 5–20 µM, which was added 1 h before the addition of the test substance, and cisplatin at concentrations of 3–10 µM. […] After 24 h, the absorbance was measured at a wavelength of 540 nm using an automated Cytation™ 3 Cell Imaging Multi-Mode Reader (Biotek, Winooski, VT, USA). […]

A549 cells = assay: Annexin V/PI staining; format: cell-based, human
Protocol: Phosphatidylserine (PS), normally localized in the inner leaflet of the cell membrane, is translocated on the outer surface during induction of apoptosis. Annexin V/PI double staining was performed to analyze the externalization of PS on the outer plasmatic membrane surface together with cell population diversification (An^−/PI^−—living cells; An^+/PI^- early apoptotic cells; An^+/PI^+—late apoptotic/necrotic cells, and An^−/PI^+—dead cells). […] The A549 lung human alveolar adenocarcinoma cells were seeded at a density of 2 × 10^5/dish. After 24 h incubation, the cells were treated with indole phytoalexin 49 at 20 µM concentration alone or after 1 h pre-treatment with chloroquine (20 µM), and the control group with DMSO (v/v 0.02%). The whole population of treated cells (adherent and floating) was harvested at three different times (24, 48 and 72 h), washed with PBS and stained with Annexin V-Alexa Fluor® 647 antibody (Thermo Scientific, Rockford, IL, USA) in binding buffer for 20 min in the dark at RT. After the wash step, samples were stained with 1 μL of propidium iodide (final concentration 25 μg/mL) for 5 min and analyzed using a BD FACSCalibur^TM Flow Cytometer (Becton Dickinson, San Jose, CA, USA). Three independent analyses were performed.

CC(C)(C)OC(=O)n1cc(CNC(=O)Nc2ccc(NC(=O)NCc3cn(C(=O)OC(C)(C)C)c4ccccc34)cc2)c2ccccc21 [Compound 49, N,N′-(1,4-phenylene)bis{N′-[1-(tert-butoxycarbonyl)indol-3-yl]methyl (urea)}]
IC50 (HeLa): 8.9 ± 0.2 µM
total PS externalization (Annexin V/PI) (A549 cells; A549, 20 µM, 24, 48 and 72 h, vs DMSO-treated control): did not induce
number of cells in late apoptosis, combination with CQ (A549 cells; A549, 49 20 µM + CQ 20 µM, all time points, vs DMSO, CQ or 49 alone): significantly increased
